Source: patent publication US8119667B2, “Carbonates of fenicol antibiotics” (Schering-Plough Animal Health Corporation, priority 2005, dated 2012)
Read-outs that look alike come from different tables or passages of the source.

Columns and labels:
[1] = Syringeability of dosing solutions (dripping-syringe method); format: physicochemical
Description: Table 4, below, provides evaluations of the syringeability of dosing solutions of selected florfenicol benzylic carbonate prodrugs at concentrations equivalent to 300 mg/ml florfenicol (30% weight/volume).
High concentrations of fenicol or fenicol drug contained in a fenicol prodrug are often necessary for convenient administration of the necessary amount of the desired amount of the antibiotic. Due to the limited solubility of fenicols in many organic solvents or mixtures of solvents acceptable for injectable formulations the choice of solvents for preparation of highly concentrated florfenicol solutions is limited. As a result highly concentrated solutions of fenicol drugs in organic solvents or solvent mixtures may become highly viscous and difficult to administer by a syringe. Therefore the ability of fenicol benzylic carbonate prodrugs to dissolve in a wider range of organic solvents or mixtures of solvents acceptable for injectable formulations offered the potential to prepare highly concentrated solutions for injections with lower viscosity. […] Test solutions of florfenicol benzylic carbonates containing concentrations of florfenicol (mg/mL) equivalent to the concentration present in Nuflor® formulation were prepared. Syringeabilities of the solutions were evaluated by means of the “dripping syringe” method in which the dripping times (sec) of equal volumes of such solutions under free gravitational flow conditions from a vertically positioned syringe were measured at 15° C. After removing the plunger from a 5 ml polyethylene disposable syringe (5 ml Luer, Norm-Ject Zentrish/Henke Saas Wolf GMBH) and fitting the syringe with a disposable needle (B-D® 16G1 Precision Glide/BentonDickinson & CO) the test solutions were loaded from the top into the syringe and the time necessary for the free flow of 2 mL of solution (between 3 ml and 1 ml marks) was recorded in triplicate. The syringeabilities relative to Nuflor® were calculated by dividing the dripping time for the test solutions (entries 1-12) by the dripping time measured for the commercial sample of Nuflor® formulation (entry 13) As it is evident from the results in Table 4 the syringeabilities of tested solutions containing benzyl alcohol as viscosity diluent had relative syringeabilities <1.00 and were therefore better than Nuflor® (30% weight/volume florfenicol solution in propylene glycol/polyethylene glycol 300/2-methyl pyrolidinone). Due to their better syringeability these solutions represent more favorable formulations for injectable delivery of florfenicol. Solution of the florfenicol benzylic carbonate of the example 2 in triacetin/2-pyrolidinone—1/1 lacking the benzyl alcohol viscosity diluent was the only solution with syringeability poorer that than that of Nuflor® (entry 5).

[2] = In vivo release of florfenicol: plasma levels after prodrug administration to cattle; settings: for AUC: bovine, plasma, sc, 40 mg/kg
Description: The pharmacokinetic profile of active antibiotic after prodrug administration, in vivo, was determined, as follows: • 1. In vivo release of active antibiotic confirmed in two different animal species: • The prodrug compound of Example 18 was administered by an intravenous (“IV”) route to rat and cattle subjects, followed by determination of florfenicol concentrations in the plasma collected over time. • The data of Table 8, below, illustrates the plasma levels of florfenicol that resulted following IV administration of the prodrug compound of Example 18, to both rat and cattle. • 2. Active antibiotic is released from the prodrug irrespective of route of administration of the prodrug: • The data of Table 9, below, illustrates the plasma levels of florfenicol that resulted following administration of the prodrug compound of Example 2, by two different routes, i.e., IV and subcutaneous (“SC”). • 3. A dose-dependant increase in the release of active moiety: • The data of table 10, below, confirms a dose-dependent increase in the plasma levels of active antibiotic (florfenicol) following administration of rising doses of prodrug compound of Example 2. • 4. Time of release of active moiety: • a. […] The data of tables 13 and 14, below, confirms that the active antibiotic is quickly released from the prodrug compound of Example 2, when administered by the IV and SC routes in cattle. The release kinetics of the compound of Example 2 were compared with administration in a formulation with a triacetin/benzyl alcohol (ratio of 2:1 wt/vol) and with administration in a formulation of triacetin/2-pyrrolidinone (ratio of 2:1 wt/vol). The study was conducted in cattle (n=3).

[3] = 358 mg/ml, 2-pyrolidinone/benzyl alcohol - 1:1, 15° C.
[4] = 358 mg/ml, Triacetin/2-pyrolidinone - 1:1, 15° C.
[5] = 358 mg/ml, Triacetin/benzyl alcohol - 2:1.5, 15° C.

Q: What does the source list for `CCOC(=O)O[C@H](c1ccc(S(C)(=O)=O)cc1)[C@@H](CF)NC(=O)C(Cl)Cl` [Example 2, (1R,2S)-2-(2,2-dichloroacetamido)-3-fluoro-1-(4-(methylsulfonyl)phenyl)propyl ethyl carbonate]?
A: Syringeability measurement: Dripping time [1, 3]: 108 ± 1 s; Syringeability measurement: Relative to NUFLOR [1, 3]: 0.46; Syringeability measurement: Dripping time [1, 4]: 268 ± 4 s; Syringeability measurement: Relative to NUFLOR [1, 4]: 1.15; Syringeability measurement: Dripping time [1, 5]: 97 ± 1 s; Syringeability measurement: Relative to NUFLOR [1, 5]: 0.42; Syringeability measurement: Relative to NUFLOR ([1]; prodrug concentration equivalent to 300 mg/ml florfenicol, Triacetin/benzyl alcohol - 2:1 (vol/vol), 15° C.): 0.55; Syringeability measurement: Dripping time ([1]; prodrug concentration equivalent to 300 mg/ml florfenicol, Triacetin/benzyl alcohol - 2:1 (vol/vol), free flow of 2 mL at 15° C.): 128 ± 7 s; time of release of active antibiotic (florfenicol) after administration ([2]; IV): less than half an hour; AUC ([2]; subcutaneous administration, read-out: Total Average AUC of the compound of Example 2 (unchanged prodrug)): 38000 ng·h/mL; AUC ([2]; subcutaneous administration, read-out: Total Average AUC of the compound of Example 2 as Florfenicol Equivalent): 30400 ng·h/mL; converted to Florfenicol once absorbed from SC site ([2]; subcutaneous administration): 83.5%
